The source of these data is patent US11377423B2, “Inhibitors of histone deacetylase” (The Broad Institute, Inc., priority 2012, dated 2022).

Structures are written as SMILES.

Data set [1] deals with human megakaryocyte progenitors. The data set can be described thus: Growth of human megakaryocyte progenitors (surrogate assay for platelet depletion). It is filed as cell-based. Here is the method: Compounds of the invention were evaluated for their effect on the growth of human megakaryocyte progenitors (surrogate assay for platelet depletion). Human CD34+ cells were grown in a collagen-based gel (Megacult-C, Stemcell Technologies). […] 100% indicates no difference in cell viability relative to the DMSO treated cells. […] This is the desired effect.

Data set [2] deals with T1, HDAC2 (Homo sapiens (Human), UniProt Q92769).
The target of data set [3] is T2, HDAC1 (Homo sapiens (Human), UniProt Q13547). Description: Kinetics of the inhibition of HDAC1. The note with it: HDAC1 residence.
Description: HDAC1 inactivation kinetic constant was determined by curve-fitting of the plot to a first-order rate equation.
The target in the next data set is HDAC9 (Homo sapiens (Human), UniProt Q9UKV0). Description: Caliper HDAC enzymatic endpoint assay, HDAC9. The data set is classed as biochemical. The note with it: Table 2C; read-out: HDAC9 IC50 after 0 hr preincubation.
A further data set has as its target HDAC7 (Homo sapiens (Human), UniProt Q8WUI4). Description: Caliper HDAC enzymatic endpoint assay, HDAC7. It is filed as biochemical. The note with it: Table 2C; read-out: HDAC7 IC50 after 0 hr preincubation.
The next data set addresses HDAC8 (Homo sapiens (Human), UniProt Q9BY41). Description: Caliper HDAC enzymatic endpoint assay, HDAC8. It is filed as biochemical. Conditions: Table 2C; read-out: HDAC8 IC50 after 0 hr preincubation.
Another data set has as its system INS-1E cells. Description: Cytokine-induced beta-cell apoptosis, caspase-3 activity assay. Conditions: IL-1β, IFN-γ, TNF-α, 48 hours, 5 μM compound. The data set is classed as cell-based, rat. Here is the method:
Compounds of the invention were evaluated for their ability to suppress cytokine-induced beta-cell apoptosis and palmitate and/or glucose-induced beta-cell apoptosis by inhibition of HDAC3. Assay protocols were as follows: Cell culture and reagents. […] Recombinant IL-1β, IFN-γ, and TNF-α were purchased from R&D Systems. Palmitate, D-glucose and fatty acids-free low endotoxin BSA were purchased from Sigma. Palmitate was solubilized in 90% ethanol, heated to 60° C. and used 1:100 dilution in media. Caspase-Glo 3/7 was from Promega and 3-(4,5-dimethylthiazol-2-yl)-2,5-diphenyltetrazolium bromide (MTT) was from Calbiochem. Antibodies for HDAC1, HDAC2, HDAC3, pJNK, JNK cleaved caspase-9 and secondary horseradish-peroxidase conjugated goat anti-mouse and anti-rabbit antibodies were from Cell Signaling. Antibody for beta-actin was from Sigma and antibody against CHOP (GADD153) from Abcam. HDAC inhibitors were purchased from Selleck Chemicals or synthesized in-house. Primers were from Integrated DNA Technologies, High Capacity cDNA RT kit and SYBR green master mix were purchased from Applied Biosystems. INS-1E cells were seeded at 5,000 cells/well using a Multidrop Combi (Thermo Labsystems) in white optical 384-well plates (Corning Life Sciences). After overnight incubation, medium was removed and 50 μL RPMI containing the treated compound, 1% FBS and either a combination of cytokines (10 ng/mL IL-1β, 50 ng/mL IFN-γ, 25 ng/mL TNF-α) or 0.5 mM sodium palmitate was added to every well. After two-day treatment, medium was removed and 20 μL Caspase-Glo 3/7 reagent was added. Luminescence was measured after a two-hour incubation using an Envision plate reader (PerkinElmer). […] The rat INS-1E cell line was simultaneously treated for 48 hours with a combination of pro-inflammatory cytokines IL-1β, IFN-γ, and TNF-α, and the indicated test compounds. […] Compound 9, a negative control, had no effect. […] FIGS. 9C and 9D show a dose-response analysis of HDAC inhibition in suppression of cytokine-induced beta-cell apoptosis. […] This could translate to a larger therapeutic window. […]

In the next data set the target is HDAC6 (Homo sapiens (Human), UniProt Q9UBN7). Description: Caliper HDAC enzymatic endpoint assay, HDAC6. It is filed as biochemical. Conditions: Table 2C; read-out: HDAC6 IC50 after 0 hr preincubation.
Data set [4] addresses T3, HDAC3 (Homo sapiens (Human), UniProt O15379). Description: Caliper HDAC enzymatic endpoint assay, HDAC3. The data set is classed as biochemical. The note with it: read-out: HDAC3 IC50 3 h Prein; Table 2, 3 h preincubation.
Description: (§1) Substrate A was prepared as 2 mM in DMSO. Its final concentration in the assay for HDACs 1, 2, 3, 6 is 2 μM.
(§2) Below is the HDAC and Substrate concentration used in this assay.
A further data set concerns the target HDAC4 (Homo sapiens (Human), UniProt P56524). The data set can be described thus: Caliper HDAC enzymatic endpoint assay, HDAC4. The data set is classed as biochemical. Conditions: Table 2C; read-out: HDAC4 IC50 after 0 hr preincubation.
In a further data set the target is HDAC5 (Homo sapiens (Human), UniProt Q9UQL6). The data set can be described thus: Caliper HDAC enzymatic endpoint assay, HDAC5. It is filed as biochemical. Conditions: Table 2C; read-out: HDAC5 IC50 after 0 hr preincubation.
For data set [5], the target named is T2, HDAC1. Description: Caliper HDAC enzymatic endpoint assay, HDAC1. The note with it: read-out: HDAC1 IC50 3 h Prein; Table 2, 3 h preincubation. The data set is classed as biochemical.
Description: as §1, §2
Data set [6] has as its target T1, HDAC2. The data set can be described thus: Caliper HDAC enzymatic endpoint assay, HDAC2. The note with it: read-out: HDAC2 IC50 3 h Prein; Table 2, 3 h preincubation. It is filed as biochemical.
Description: as §1, §2
For data set [7], the target named is T3, HDAC3.

T2 sequence (Q13547 whole entry): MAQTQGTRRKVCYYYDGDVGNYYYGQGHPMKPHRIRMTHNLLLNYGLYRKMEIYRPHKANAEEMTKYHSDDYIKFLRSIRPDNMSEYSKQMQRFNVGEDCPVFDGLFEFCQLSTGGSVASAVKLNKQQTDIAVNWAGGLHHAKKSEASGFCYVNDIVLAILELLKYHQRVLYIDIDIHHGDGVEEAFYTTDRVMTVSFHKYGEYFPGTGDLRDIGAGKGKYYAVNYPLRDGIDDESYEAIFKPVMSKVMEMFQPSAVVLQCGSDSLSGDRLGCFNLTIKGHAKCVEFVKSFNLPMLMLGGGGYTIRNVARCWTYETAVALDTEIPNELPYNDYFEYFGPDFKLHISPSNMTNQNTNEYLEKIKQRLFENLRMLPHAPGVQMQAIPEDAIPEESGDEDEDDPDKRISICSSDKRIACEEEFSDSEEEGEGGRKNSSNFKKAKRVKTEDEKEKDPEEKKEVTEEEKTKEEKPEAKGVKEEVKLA
T1 sequence (Q92769 whole entry): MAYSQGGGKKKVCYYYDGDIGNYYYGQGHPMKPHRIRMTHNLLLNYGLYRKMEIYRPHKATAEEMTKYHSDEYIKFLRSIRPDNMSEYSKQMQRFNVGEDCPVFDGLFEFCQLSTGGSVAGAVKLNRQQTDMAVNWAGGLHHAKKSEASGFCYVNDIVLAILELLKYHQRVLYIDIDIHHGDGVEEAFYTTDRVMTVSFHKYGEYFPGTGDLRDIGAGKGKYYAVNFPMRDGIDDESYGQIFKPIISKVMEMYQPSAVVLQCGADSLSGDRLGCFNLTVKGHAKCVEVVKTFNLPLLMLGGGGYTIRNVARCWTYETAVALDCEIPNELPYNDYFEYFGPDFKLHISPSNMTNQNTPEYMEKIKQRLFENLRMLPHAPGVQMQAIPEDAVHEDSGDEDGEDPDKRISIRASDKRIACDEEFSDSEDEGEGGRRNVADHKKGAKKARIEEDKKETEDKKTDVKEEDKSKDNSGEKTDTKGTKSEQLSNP
T3 sequence (O15379 whole entry): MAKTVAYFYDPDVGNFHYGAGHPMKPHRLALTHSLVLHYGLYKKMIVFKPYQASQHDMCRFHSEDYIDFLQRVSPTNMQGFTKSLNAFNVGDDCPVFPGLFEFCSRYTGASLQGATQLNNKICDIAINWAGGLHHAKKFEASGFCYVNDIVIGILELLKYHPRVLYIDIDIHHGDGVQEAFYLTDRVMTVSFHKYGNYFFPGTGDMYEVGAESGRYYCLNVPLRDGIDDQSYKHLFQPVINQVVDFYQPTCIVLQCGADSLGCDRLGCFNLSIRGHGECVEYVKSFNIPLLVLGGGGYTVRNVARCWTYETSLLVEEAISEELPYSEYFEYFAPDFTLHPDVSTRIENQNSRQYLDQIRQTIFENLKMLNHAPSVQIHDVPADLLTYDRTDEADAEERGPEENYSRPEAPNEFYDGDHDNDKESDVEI
T3 sequence (Q9Y618 395-489 partner): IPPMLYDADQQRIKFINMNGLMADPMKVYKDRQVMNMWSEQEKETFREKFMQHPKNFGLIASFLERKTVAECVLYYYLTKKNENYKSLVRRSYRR
Chain of HDAC4 (P56524 whole entry): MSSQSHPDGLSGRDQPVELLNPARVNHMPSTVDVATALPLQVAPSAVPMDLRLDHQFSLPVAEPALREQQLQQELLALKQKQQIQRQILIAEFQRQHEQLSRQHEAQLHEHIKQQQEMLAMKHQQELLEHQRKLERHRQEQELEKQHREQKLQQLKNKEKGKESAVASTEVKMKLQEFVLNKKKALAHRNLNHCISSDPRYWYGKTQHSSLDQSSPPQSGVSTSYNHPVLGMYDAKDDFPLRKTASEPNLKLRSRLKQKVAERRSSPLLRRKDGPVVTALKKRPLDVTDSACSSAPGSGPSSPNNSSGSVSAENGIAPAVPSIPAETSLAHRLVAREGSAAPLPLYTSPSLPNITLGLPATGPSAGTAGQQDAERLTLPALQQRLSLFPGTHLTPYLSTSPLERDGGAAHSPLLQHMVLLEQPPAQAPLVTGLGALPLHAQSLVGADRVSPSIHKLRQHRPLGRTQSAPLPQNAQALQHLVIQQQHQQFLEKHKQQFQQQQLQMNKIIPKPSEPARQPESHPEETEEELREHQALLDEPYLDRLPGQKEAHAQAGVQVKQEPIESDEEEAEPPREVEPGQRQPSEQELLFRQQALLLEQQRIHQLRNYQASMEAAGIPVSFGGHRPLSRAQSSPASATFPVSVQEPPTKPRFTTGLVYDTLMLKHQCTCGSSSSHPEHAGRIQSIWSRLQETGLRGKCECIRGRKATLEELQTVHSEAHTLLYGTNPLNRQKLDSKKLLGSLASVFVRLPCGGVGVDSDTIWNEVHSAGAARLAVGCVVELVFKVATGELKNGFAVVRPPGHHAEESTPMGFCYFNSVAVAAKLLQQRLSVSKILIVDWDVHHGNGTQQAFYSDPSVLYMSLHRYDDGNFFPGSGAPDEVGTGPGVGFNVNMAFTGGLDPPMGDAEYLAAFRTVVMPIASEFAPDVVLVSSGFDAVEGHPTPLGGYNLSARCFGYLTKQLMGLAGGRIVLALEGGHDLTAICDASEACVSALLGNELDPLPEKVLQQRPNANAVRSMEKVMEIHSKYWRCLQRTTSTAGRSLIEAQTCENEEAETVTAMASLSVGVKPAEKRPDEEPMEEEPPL
Chain of HDAC8 (Q9BY41 whole entry): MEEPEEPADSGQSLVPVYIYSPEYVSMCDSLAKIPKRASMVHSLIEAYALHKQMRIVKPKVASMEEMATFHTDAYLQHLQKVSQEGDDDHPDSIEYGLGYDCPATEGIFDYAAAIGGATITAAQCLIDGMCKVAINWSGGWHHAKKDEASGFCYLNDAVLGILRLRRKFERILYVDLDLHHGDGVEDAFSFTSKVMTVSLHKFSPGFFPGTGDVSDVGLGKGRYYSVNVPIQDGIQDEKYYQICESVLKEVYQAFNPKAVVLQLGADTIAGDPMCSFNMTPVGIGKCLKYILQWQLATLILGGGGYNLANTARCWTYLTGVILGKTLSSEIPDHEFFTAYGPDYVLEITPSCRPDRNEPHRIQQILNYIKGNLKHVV
Chain of HDAC7 (Q8WUI4 whole entry): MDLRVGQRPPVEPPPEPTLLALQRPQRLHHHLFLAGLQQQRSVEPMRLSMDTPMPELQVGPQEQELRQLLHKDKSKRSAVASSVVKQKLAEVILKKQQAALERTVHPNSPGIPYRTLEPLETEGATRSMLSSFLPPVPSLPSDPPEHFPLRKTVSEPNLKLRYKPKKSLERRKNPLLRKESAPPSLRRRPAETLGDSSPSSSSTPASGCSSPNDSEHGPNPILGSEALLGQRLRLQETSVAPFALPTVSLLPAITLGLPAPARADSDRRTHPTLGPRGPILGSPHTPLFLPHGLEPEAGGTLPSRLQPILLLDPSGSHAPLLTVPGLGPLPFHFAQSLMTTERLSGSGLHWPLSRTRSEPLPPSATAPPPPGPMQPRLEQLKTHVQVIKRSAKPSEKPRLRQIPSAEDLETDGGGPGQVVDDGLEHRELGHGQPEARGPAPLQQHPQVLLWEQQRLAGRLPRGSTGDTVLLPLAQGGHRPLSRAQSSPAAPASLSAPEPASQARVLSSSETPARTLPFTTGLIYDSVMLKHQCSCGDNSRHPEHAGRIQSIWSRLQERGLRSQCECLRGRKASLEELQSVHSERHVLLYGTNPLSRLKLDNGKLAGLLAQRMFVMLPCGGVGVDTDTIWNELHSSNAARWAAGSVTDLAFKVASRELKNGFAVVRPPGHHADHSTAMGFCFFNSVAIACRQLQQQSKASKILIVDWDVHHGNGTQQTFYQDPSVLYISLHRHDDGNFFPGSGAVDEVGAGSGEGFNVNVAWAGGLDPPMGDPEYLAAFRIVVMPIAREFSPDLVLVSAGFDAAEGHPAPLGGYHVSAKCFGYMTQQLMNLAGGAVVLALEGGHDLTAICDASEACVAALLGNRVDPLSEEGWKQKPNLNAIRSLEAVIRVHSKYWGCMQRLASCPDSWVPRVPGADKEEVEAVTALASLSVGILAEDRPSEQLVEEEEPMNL
Chain of HDAC9 (Q9UKV0 whole entry): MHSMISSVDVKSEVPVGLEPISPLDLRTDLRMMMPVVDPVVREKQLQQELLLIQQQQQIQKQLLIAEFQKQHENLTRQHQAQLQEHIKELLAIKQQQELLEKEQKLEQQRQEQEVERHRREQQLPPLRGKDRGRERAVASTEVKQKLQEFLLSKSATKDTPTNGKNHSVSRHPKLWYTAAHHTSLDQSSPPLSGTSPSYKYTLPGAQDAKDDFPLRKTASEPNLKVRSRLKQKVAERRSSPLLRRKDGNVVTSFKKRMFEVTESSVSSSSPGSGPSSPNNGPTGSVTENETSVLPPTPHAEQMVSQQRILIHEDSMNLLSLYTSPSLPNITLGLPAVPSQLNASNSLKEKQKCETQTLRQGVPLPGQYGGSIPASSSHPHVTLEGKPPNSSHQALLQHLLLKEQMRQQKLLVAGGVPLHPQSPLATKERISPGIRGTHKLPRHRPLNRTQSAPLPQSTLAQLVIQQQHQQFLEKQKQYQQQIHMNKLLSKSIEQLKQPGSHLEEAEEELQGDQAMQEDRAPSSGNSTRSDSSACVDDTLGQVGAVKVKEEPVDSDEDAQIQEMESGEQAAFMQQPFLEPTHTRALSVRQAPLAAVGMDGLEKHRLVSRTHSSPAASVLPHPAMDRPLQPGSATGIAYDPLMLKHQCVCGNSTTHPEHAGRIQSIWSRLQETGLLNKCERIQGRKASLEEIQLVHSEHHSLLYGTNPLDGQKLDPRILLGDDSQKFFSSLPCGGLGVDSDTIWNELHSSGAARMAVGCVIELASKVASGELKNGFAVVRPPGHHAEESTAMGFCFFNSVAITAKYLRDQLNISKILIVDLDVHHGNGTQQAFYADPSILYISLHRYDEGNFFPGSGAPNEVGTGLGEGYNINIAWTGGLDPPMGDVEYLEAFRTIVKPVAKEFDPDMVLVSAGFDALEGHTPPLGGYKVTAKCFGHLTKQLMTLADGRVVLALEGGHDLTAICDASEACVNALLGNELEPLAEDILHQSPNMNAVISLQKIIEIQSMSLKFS
Description for HDAC4: (§3) The Caliper HDAC Assay Buffer (acronym HAB, 1 liter) was prepared as follows:
(§4) Substrate B was prepared as 2 mM in 100% DMSO. Its final concentration in the assay for HDACs 4, 5, 7, 8, 9 is 2 μM.
(§5) LBH was used as quench inhibitor to stop the reaction at the end point.
IC50 values are in micromolar.
Description for HDAC5: as §3, §4, §5
IC50 values are in micromolar.
Description for HDAC6: as §1, §2
Description for HDAC7: as §3, §4, §5
IC50 values are in micromolar.
Description for HDAC8: as §3, §4, §5
IC50 values are in micromolar.
Description for HDAC9: as §3, §4, §5
IC50 values are in micromolar.

As for `CC(=O)Nc1ccc(C(=O)Nc2ccccc2N)cc1` [CI-994, 4-(Acetylamino)-N-(2-aminophenyl)benzamide, reference compound], the “effect on megakaryocyte progenitor cell growth at 1 μM” value in [1] (1 μM) is on record as “significant toxic effect on cell growth”. The “toxicity to human megakaryocyte progenitors at higher concentrations” value in [1] (particularly at 10 μM and 20 μM) is on record as “highly toxic”. Further, the values for the T1/2 at HDAC2 [2] and on HDAC1 [3] were 3.17 h and 1.23 h, respectively.
What is called IC50 is the concentration that inhibits the measured activity by half. For `CC(=O)Nc1ccc(C(=O)Nc2ccc(C)cc2N)cc1` [Compound 9, 4-acetamido-N-(2-amino-4-methylphenyl)benzamide], the IC50 on HDAC9, on HDAC7, at HDAC8, on HDAC6, on HDAC3 [4] and on HDAC4 was above 33 µM throughout. Further, the IC50 at HDAC5, on HDAC1 [5] and on HDAC2 [6] was above 33 µM each time. Also, the “effect on growth and viability of human megakaryocyte progenitor cells” value in [1] (0.1, 1, 10 and 20 μM, relative to DMSO treated cells) was “no significant effect on growth and viability”. Further, in the data set on INS-1E cells, the “suppression of cytokine-induced beta-cell apoptosis (caspase activity)” value is “no effect”.
With `Nc1ccccc1NC(=O)c1ccc(CNC(=O)OCc2cccnc2)cc1` [MS-275, reference compound], the T1/2 was found to be 1.05 h at HDAC2 [2] and 1.77 h at HDAC1 [3].
As for `O=C(CCCCCCC(=O)Nc1ccccc1)NO` [SAHA, N1-hydroxy-N8-phenyl-octanediamide, reference compound], the T1/2 on HDAC3 [7] is below 4 min; on HDAC1 [3], below 0.067 h.
